Experimental data as given in patent publication US10034913B2, “Anti-angiogenic peptides and uses thereof” (Health Research, Inc., priority 2011, dated 2018).
Blank lines part the entries; values can stand above or below the molecule they belong to. Bridges are numbered along the chain shown (N, C = ends). Where no end group is shown, it is not given here.

Legend:
[1] = tested on: HUVEC; experiment: Matrigel endothelial tube formation assay; type: cell-based, human; conditions: for inhibitory activity on endothelial tube formation: equi-molar concentrations of f-PSA and T-PSA; for anti-angiogenic activity, inhibition of tube formation by HUVEC in Matrigel: 10 uM, 18 hr, FIGS. 14, 19, 20; for reproducible anti-angiogenic activity: tested at 10 and 100 μM
Source text: The 3-D model of human PSA, the amino acid sequence of the initial five candidate peptides, and their color-coded location on the exterior of the PSA protein molecule in aqueous solution, are presented in FIG. 8. Five PSA-mimetic peptides with >90% purity were acquired from GeneScript Corporation, Piscataway, N.J., and tested for anti-angiogenic activity against HUVECs in the Matrigel tube formation assay with intact PSA as the control (FIGS. 9 &10). Briefly, to perform these assays, 10^4 HUVEC cells are mixed with the PSA mimetic peptide, and, the mixture placed on top of a solidified, pre-poured Matrigel layer in a flat bottomed well of a multi-chambered plate, and the culture incubated for 16-18 hr to allow time for the endothelial cells to migrate and form tubular structures. At the conclusion of the incubation, digital images were made from the center of each culture to avoid bias, and 3-4 wells for each test condition were imaged. The images are processed under the Analyze 7.0 and “Angioquant” software packages, for imaging and quantification. The total length of tubular structures in the image is determined, and averaged over the replicate cultures. This method of quantification allows for accurate, unbiased measurement of tube lengths. Peptides having each of the peptide sequences shown in FIG. 8 are encompassed within the scope of the invention, including all modifications and substitutions to the sequences as described supra.
The experimental endpoint, measured by digital image analysis, is the total area of the image comprised of endothelial cells (tubes). […] While the reason for the decrease in the amount of anti-angiogenic activity in this figure when the concentration of the peptides is increased from 10 to 100 μM is not clear, it may be related to a dosing response observed in this case. […] FIG. 10 presents the evaluation of anti-angiogenic activity for peptides #1 and #3 relative to the level of inhibition by native PSA, averaged over multiple experiments with different parental populations of HUVEC cells. Across multiple sets of experiments, both peptides inhibited the angiogenic activity of HUVEC by 35-40% relative to native PSA.
FIG. 13 is a graphical representation of data showing anti-angiogenic activity of f-PSA, PSA-P3L, and PSA-P3C by inhibiting tube formation by HUVEC in a Matrigel assay. To produce the results summarized in FIG. 13, a 24-well tissue culture plate was coated with 200 ul/well of Matrigel and incubated for 30 min at 37 C. Approximately 80,000 HUVEC in 0.5 ml of media supplemented with f-PSA or PSA-P3L, PSA-P3C was applied on top of the Matrigel layer and cells were incubated for 18 hr at 37 C foe endothelial cell tube formation. Live cell images (4× magnification) were taken using Nikon Eclipse TE300 inverted microscope system and analyzed using Spot Advance software program. Five images were taken/well. The images were processed further using Analyze 7.0 (AnalyzeDirect, Inc., Overland Park, Kans.) and Angioquant v1.33 to obtain the average tube length for each image. Percent inhibition is expressed in relation to tube length in untreated control cells.

[2] = molecular target: T1, Mu-His-Ser-Ser-Lys-Leu-Gln—AFC (Homo sapiens, UniProt P07288); experiment: Enzymatic activity of isolated PSA, hydrolysis of fluorogenic substrate; type: biochemical; conditions: for enzymatic activity in the assay: fluorogenic substrate hydrolysis
T1 construct: The 237 amino acid protein (25-261) were used in the studies that include PSA as described herein; from tissue; host or cells: human seminal plasma (f-PSA); human prostate cancer tissue specimens (T-PSA)
T1 sequence (P07288 25-261): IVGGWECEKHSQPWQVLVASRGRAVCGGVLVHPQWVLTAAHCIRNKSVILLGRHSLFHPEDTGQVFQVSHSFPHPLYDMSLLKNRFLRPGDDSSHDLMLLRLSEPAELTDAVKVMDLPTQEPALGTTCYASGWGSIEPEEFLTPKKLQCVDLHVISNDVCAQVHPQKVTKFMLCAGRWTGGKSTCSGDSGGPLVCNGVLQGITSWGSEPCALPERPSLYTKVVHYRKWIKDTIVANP
Experimental: In particular, enzymatic activity of PSA isolated from human seminal plasma (f-PSA) and from human prostate cancer tissue specimens (Tissue-PSA: T-PSA) was evaluated routinely using a substrate (Mu-His-Ser-Ser-Lys-Leu-Gln—AFC) (SEQ ID NO:102) (Calbiochem) that is highly specific for PSA. […] PSA in the tissue microenvironment (T-PSA) is largely free and enzymatically active. T-PSA levels are lower in advanced prostate cancer than benign prostate, and T-PSA levels correlate with prognosis in prostate cancer, as well as in breast cancer; the higher the T-PSA level, the better the prognosis.
(§1) Hydrolysis of the fluorogenic substrate was quantitated using a LS-45 Luminescence Spectrometer from Perkin Elmer) using the FL-Winlab® program. Human prostate cancer tissue specimens were obtained from the Pathology Resource Network at Roswell Park Cancer Institute under an IRB approved protocol.

[3] = tested on: FLT1 gene expression in HUVEC; experiment: FLT1 gene expression in HUVEC, Real-time QPCR; type: cell-based, human; conditions: 10 uM, average of three experiments
Experimental: FIG. 15 is a graphical representation of data showing modulation of FLT1 gene expression in HUVEC by f-PSA and PSA-P31. […] To obtain the data summarized in this figure, nearly confluent monolayers of HUVEC were treated with 10 uM of f-PSA or PSA-P3L; RNA extracted and reverse transcribed. The c-DNA was amplified by Real-time QPCR using specific primer. The results shown are average of three experiments.

[4] = tested on: VEGF gene expression in HUVEC; experiment: VEGF gene expression in HUVEC, Real-time QPCR; type: cell-based, human; conditions: 10 uM, average of three experiments
Experimental: FIG. 17 is a graphical representation of data showing modulation of VEGF gene expression in HUVEC by f-PSA, PSA-P3L and PSA-P3C. To produce the results summarized in FIG. 17, nearly confluent monolayers of HUVEC were treated with 10 uM of f-PSA or PSA-P3L; RNA extracted and reverse transcribed. The c-DNA was amplified by Real-time QPCR using specific primers. The results shown are average of three experiments. […] The data represents an average of three experiments. […] Thus, in one embodiment, the invention provides a method for inhibiting VEGF expression in human endothelial cells comprising contacting the cells with one or more peptides of the invention.

[5] = tested on: ANG2 gene expression in HUVEC; experiment: ANG2 gene expression in HUVEC, Real-time QPCR; type: cell-based, human; conditions: 10 uM, average of three experiments
Experimental: FIG. 18 is a graphical representation of data showing modulation of ANG2 gene expression in HUVEC by f-PSA, PSA-P31 and PSA-P3C. To produce the results summarized in FIG. 18, nearly confluent monolayers of HUVEC were treated with 10 uM of f-PSA, PSA-P3L or PSA-P3C; RNA extracted and reverse transcribed. The c-DNA was amplified by Real-time QPCR using specific primer. The results shown are an average of three experiments. […] Accordingly, in one embodiment, the invention provides a method for inhibiting ANG2 expression in human endothelial cells comprising contacting the cells with one or more peptides of the invention.

[6] = tested on: FAK gene expression in HUVEC; experiment: FAK gene expression in HUVEC, Real-time QPCR; type: cell-based, human; conditions: 10 uM, average of three experiments
Experimental: FIG. 16 is a graphical representation of data showing modulation of FAK gene expression in HUVEC by f-PSA and PSA-P3L. To produce the results summarized in FIG. 16, nearly confluent monolayers of HUVEC were treated with 10 uM of f-PSA or PSA-P3L; RNA extracted and reverse transcribed. The c-DNA was amplified by Real-time QPCR using specific primers. The results shown are the average of three experiments. […] The other experimental details are similar to all gene expression studies. Thus, in one embodiment, the invention provides a method for inhibiting FAK gene expression in human endothelial cells comprising contacting the cells with one or more peptides of the invention.

[7] = tested on: PC-3M cells; experiment: Gene expression array and QPCR analysis of PC-3M cells treated with PSA; type: cell-based, human
Source text: (§2) PSA purified to homogeneity from human seminal plasma is enzymatically active, and free of contaminating hk2, and complexes with carrier proteins/chaperones (Bindukumar, B., et al., J Chromatogr B Analyt Technol Biomed Life Sci, 2004. 813(1-2): p. 113-20).

[8] = tested on: PC-3M cells; conditions: cited from earlier work
[9] = tested on: PC-3M cells; experiment: Proteomic profiling (2D-DIGE, HPLC-MS/MS) of PC-3M cells treated with PSA; type: cell-based, human; conditions: PSA treatment
Source text: This Example provides an illustration of proteomic profiling of the effect of PSA on human prostate cancer cells. In this regard, a proteomic approach was employed to identify proteins whose expression was modulated in PC-3M cells treated with PSA. […] Proteins from 26 gel spots were identified [FIG. 2]. […] Specificity of PSA modulation of differential expression of these genes in PC-3M cells was validated at the gene level by RT-QPCR [FIG. 3].

[10] = tested on: PC-3M xenografts; experiment: Growth of PC-3M xenografts in nude mice; type: in vivo; conditions: PSA administered in the tumor vicinity; control animals 267 mm^3
Source text: as §2

[11] = tested on: HUVEC cells; experiment: Expression of angiogenesis/vasculogenesis genes in HUVEC, enzymatically active vs inactive PSA; type: cell-based, human
Experimental: (§3) Enzymatically active PSA, and PSA inactivated by incubation with Zinc^2+ [activity inhibited>75% by 5.0 μM of Zinc, inset FIG. 4] were compared for their respective effects on expression of genes involved in angiogenesis/vasculogenesis in HUVEC cells.

[12] = molecular target: T2, PSA (Homo sapiens, UniProt P07288); experiment: Inhibition of PSA enzymatic activity by zinc; type: biochemical
T2 construct: The 237 amino acid protein (25-261) were used in the studies that include PSA as described herein; from tissue; host or cells: human seminal plasma (f-PSA); human prostate cancer tissue specimens (T-PSA)
T2 sequence (P07288 25-261): as above
Experimental: as §1, §3

[13] = PC-3M cells versus LNCaP cells treated with 10 μM PSA

enzymatic activity relative to f-PSA from seminal plasma ([2]; per microgram of protein): roughly 50%
Molecule: T-PSA: PSA isolated from human prostate cancer tissue specimens
inhibitory activity on endothelial tube formation [1]: equivalent inhibitory activity
enzymatic activity in the assay [2]: demonstrated enzymatic activity

Molecule: PSA-ACT Complex: f-PSA complexed with serine protease inhibitor alpha 1 anti-chymotrypsin (ACT)
anti-angiogenic activity, inhibition of tube formation by HUVEC in Matrigel [1]: significant loss of anti-angiogenic activity
anti-angiogenic activity, inhibition of tube formation by HUVEC in Matrigel ([1]; listed as PSA-ACT complexes): significantly reduced

Molecule: NDVAAQVHPQKVTKFMLAA [PSA-P3L]
FLT1 gene expression [3]: effectively inhibit
anti-angiogenic activity, inhibition of tube formation by HUVEC in Matrigel [1]: significantly inhibit
VEGF gene expression [4]: not significantly different from control
ANG2 gene expression [5]: not significantly different from control
FAK gene expression [6]: not significantly different

Molecule: f-PSA: PSA isolated from human seminal plasma, free and enzymatically active; 237 amino acid protein (residues 25-261)
genes down-regulated (gene expression array) [7, 13]: 137
genes up-regulated (gene expression array) [7, 13]: 136
expression of IFN-γ and interferon related genes incl. 2,5 oligo-adenylated synthetase-2 (QPCR) ([7]; PC-3M cells, 10 μM PSA): up-regulated
expression of uPA, VEGF, cysteine-rich angiogenic inducer-61, EphA2, TGF-β2 (QPCR) ([7]; PC-3M cells, 10 μM PSA): significantly down-regulated
effect on VEGF and IFN-γ gene expression and protein release [8]: distinctly dose dependent
FLT1 gene expression [3]: effectively inhibit
proteins significantly changed (p<0.05) in abundance [9]: 41
anti-angiogenic activity, inhibition of tube formation by HUVEC in Matrigel [1]: significant anti-angiogenic activity
anti-angiogenic activity, inhibition of tube formation by HUVEC in Matrigel ([1]; listed as PSA): significantly inhibit
inhibitory activity on endothelial tube formation [1]: equivalent inhibitory activity
VEGF gene expression [4]: significantly down-regulate
ANG2 gene expression [5]: significantly inhibited
FAK gene expression [6]: significantly down-regulates
mean tumor volume [10]: 13 mm^3
expression of blood vessel development genes FAK, FLT, KDR, TWIST1, Cathepsin D and P-38 [11]: equally effective
negative modulation of expression of pro-angiogenic growth factors bFGF and VEGF [11]: equally effective
positive modulation of expression of IFN-γ [11]: equally effective
enzymatic activity in the assay [2]: demonstrated enzymatic activity

Molecule: GRWTGGKSTCS [Peptide #4]
reproducible anti-angiogenic activity [1]: did not demonstrate reproducible anti-angiogenic activity

Molecule: PSA inactivated by incubation with Zinc^2+: PSA enzymatically inactivated by incubation with Zinc2+ (5.0 μM)
inhibition of tube formation compared with native PSA ([1]; over the entire range of PSA concentrations studied): as inhibitory of tube formation as was native PSA
expression of blood vessel development genes FAK, FLT, KDR, TWIST1, Cathepsin D and P-38 [11]: equally effective
negative modulation of expression of pro-angiogenic growth factors bFGF and VEGF [11]: equally effective
positive modulation of expression of IFN-γ [11]: equally effective

Molecule: KNRFLRPGDDSSH [Peptide #1, amino acids 107-119 of PSA]
anti-angiogenic activity, inhibition of tube formation by HUVEC in Matrigel [1]: significantly inhibit
inhibition of tubule formation ([1]; 100 μM, FIG. 9): maximal inhibition

Molecule: SEPCALPERPS [Peptide #5]
reproducible anti-angiogenic activity [1]: did not demonstrate reproducible anti-angiogenic activity

Molecule: Asn Asp Val Cys Ala Gln Val His Pro Gln Lys Val Thr Lys Phe Met Leu Cys Ala (Ac-NDVCAQVHPQKVTKFMLCA-NH2; disulfide 4-18 (inferred)) [PSA-P3C]
inhibition of HUVEC tube formation, cyclic versus linear peptide ([1]; at certain concentrations, FIG. 11): even more efficiently than linear peptide
VEGF gene expression [4]: significantly down-regulate
ANG2 gene expression [5]: significantly inhibited
FAK gene expression [6]: significantly down-regulates

Molecule: [Cl-].[Cl-].[Zn+2] [zinc chloride]
PSA activity inhibited ([12]; 5.0 μM of Zinc): > 75%
inhibition of enzymatic activity of f-PSA and T-PSA ([12]; pre-incubation with zinc chloride 5 μM): inhibited completely

Molecule: GWGSIEPEEFLTPKKLQ [Peptide #2]
reproducible anti-angiogenic activity [1]: did not demonstrate reproducible anti-angiogenic activity
